Experimental data taken from patent US4861785A (priority 1985, dated 1989).
Where a name gives a salt, the structure may show the parent alone.

System: KCN-induced lethality
Assay: KCN Test in Rats (protection from KCN induced lethality)
Type: in vivo
Details: Rattus norvegicus, sc; male Wistar rats, subcutaneous, one hour before KCN 5 mg/kg i.v.; survival after 2 minutes; read-out: ED50-values (protecting 50% of the tested animals against KCN-induced lethality)

SMILES | ED50
C[C@@H]1CN(CCCCOc2ccccc2)CC[C@@H]1N(C)c1nc2ccccc2s1 (relative stereo) [Compound 75] | 10 mg/kg
CN(c1nc2ccccc2o1)C1CCN(CC(O)C2COc3ccccc3O2)CC1 (single isomer, unassigned) [Compound 413, (A)-4-[(2-benzoxazolyl)methylamino]-α-(2,3-dihydro-1,4-benzodioxin-2-yl)-1-piperidineethanol] | 5 mg/kg
CN(c1nc2ccccc2s1)C1CCN(CC(O)C2COc3ccccc3O2)CC1 (single isomer, unassigned) [Compound 415, (A)-4-[(2-benzothiazolyl)methylamino]-α-(2,3-dihydro-1,4-benzodioxin-2-yl)-1-piperidineethanol] | 10 mg/kg
CN(c1nc2ccccc2s1)C1CCN(CCCCOc2cccc(Cl)c2)CC1.O=C(O)/C=C\C(=O)O [Compound 1, N-[1-[4-(3-chlorophenoxy)butyl]-4-piperidinyl]-N-methyl-2-benzothiazolamine (Z)-2-butenedioate (1:1)] | 5 mg/kg
CN(c1nc2ccccc2s1)C1CCN(CCCOc2cccc(F)c2)CC1 [Compound 9] | 2.5 mg/kg
CN(c1nc2ccccc2s1)C1CCN(CCCCOc2ccccc2)CC1 [Compound 10] | 5 mg/kg
CN(c1nc2ccccc2s1)C1CCN(CCCCOc2ccc(F)cc2)CC1 [Compound 11] | 1.25 mg/kg
CN(c1nc2ccccc2o1)C1CCN(CCCCOc2ccc(Cl)cc2)CC1 [Compound 15] | 0.63 mg/kg
CN(c1nc2ccccc2s1)C1CCN(CCCOc2ccccc2F)CC1 [Compound 18] | 5 mg/kg
COc1ccc(OCCCN2CCC(N(C)c3nc4ccccc4s3)CC2)cc1 [Compound 24] | 5 mg/kg
COc1ccc(OCCCCN2CCC(N(C)c3nc4ccccc4s3)CC2)cc1 [Compound 31] | 5 mg/kg
CN(c1nc2ccccc2s1)C1CCN(CCCCCOc2ccc(F)cc2)CC1 [Compound 32] | 5 mg/kg
CN(c1nc2ccccc2s1)C1CCN(CCCCOc2ccc(Br)cc2)CC1 [Compound 42] | 2.5 mg/kg
Cc1cccc(OCCCN2CCC(N(C)c3nc4ccccc4o3)CC2)c1 [Compound 48] | 1.25 mg/kg
COc1ccccc1OCCCCCN1CCC(N(C)c2nc3ccccc3s2)CC1 [Compound 50] | 2.5 mg/kg
CCCCN1CCC(N(C)c2nc3ccccc3o2)CC1 [Compound 103] | 5 mg/kg
C(=Cc1ccccc1)CN1CCC(Nc2nc3ccccc3o2)CC1 [Compound 107] | 2.5 mg/kg
CN(c1nc2ccccc2s1)C1CCN(CCCCCc2ccccc2)CC1 [Compound 108] | 5 mg/kg
CN(c1nc2ccccc2s1)C1CCN(CCCCOc2ccc(F)cc2)C1 (stereo not shown) [Compound 118, N-[1-[4-(4-fluorophenoxy)butyl]-3-pyrrolidinyl]-N-methyl-2-benzothiazolamine dihydrochloride.monohydrate] | 5 mg/kg
Cc1cccc(OCCCN2CCC(N(C)c3nc4ccccc4s3)C2)c1.O=C(O)C(=O)O (stereo not shown) [Compound 120, N-methyl-N-[1-[3-(3-methylphenoxy)propyl]-3-pyrrolidinyl]-2-benzothiazolamine ethanedioate(1:1)] | 2.5 mg/kg
CN(c1nc2ccccc2s1)C1CCN(CCCOc2cccc(F)c2)C1.O=C(O)C(=O)O (stereo not shown) [Compound 121, N-[1-[3-(3-fluorophenoxy)propyl]-3-pyrrolidinyl]-N-methyl-2-benzothiazolamine ethanedioate(1:1)] | 2.5 mg/kg
CCN(c1nc2ccccc2s1)C1CCN(CCCOc2ccc(C)cc2)CC1 [Compound 123, N-ethyl-N-[1-[3-(4-methylphenoxy)propyl]-4-piperidinyl]-2-benzothiazolamine] | 5 mg/kg

SMILES | ED50
CN(c1nc2ccccc2s1)C1CCN(CC=Cc2ccccc2)CC1 [Compound 133] | 5 mg/kg
CN(c1nc2ccccc2s1)C1CCN(CCCOc2ccc(F)cc2)CC1 [Compound 146] | 5 mg/kg
CN(c1nc2ccccc2s1)C1CCN(CCCOc2ccc3ccccc3c2)CC1 [Compound 148] | 5 mg/kg
CN(c1nc2ccccc2s1)C1CCN(CCCOc2ccc([N+](=O)[O-])cc2)CC1 [Compound 151] | 5 mg/kg
CN(c1nc2ccccc2s1)C1CCN(CCCCCOc2cccc(Cl)c2)CC1 [Compound 191] | 2.5 mg/kg
CN(c1nc2ccccc2o1)C1CCN(CCCOc2cccc(F)c2)CC1 [Compound 195] | 1.25 mg/kg
CN(c1nc2ccccc2o1)C1CCN(C2CCCCC2)CC1 [Compound 309] | 5 mg/kg
CN(c1nc2ccccc2s1)C1CCN(CC(O)COc2ccc(F)cc2)CC1 (stereo not drawn) [Compound 320, 4-[(2-benzothiazolyl)methylamino]-α-[(4-fluorophenoxy)methyl]-1-piperidineethanol monohydrochloride] | 1.8 mg/kg
CN(c1nc2ccccc2o1)C1CCN(CC(O)COc2ccccc2)CC1 (stereo not shown) [Compound 322] | 5 mg/kg
CN(c1nc2ccccc2o1)C1CCN(CC(O)COc2ccc(F)cc2)CC1 (stereo not shown) [Compound 323] | 1.25 mg/kg
CN(c1nc2ccccc2o1)C1CCN(CC(O)COc2ccc(Cl)cc2)CC1 (stereo not shown) [Compound 324] | 2.5 mg/kg
CCN(c1nc2ccccc2s1)C1CCN(CC(O)COc2ccc(Cl)cc2)CC1 (stereo not shown) [Compound 357] | 0.63 mg/kg
CN(c1nc2ccccc2s1)C1CCN(CC(O)COc2ccc(F)cc2)C1 (stereo not drawn) [Compound 405, 3-[(2-benzothiazolyl)methylamino]-α-[(4-fluorophenoxy)methyl]-1-pyrrolidineethanol 4-methylbenzenesulfonate(1:2)] | 10 mg/kg
CN(c1nc2ccccc2s1)C1CCN(C[C@@H](O)COc2ccc(F)cc2)CC1 [Compound 410, (+)-(R)-4-[(2-benzothiazolyl)methylamino]-α-[(4-fluorophenoxy)methyl]-1-piperidineethanol dihydrochloride] | 5 mg/kg
CN(c1nc2ccccc2s1)C1CCN(C[C@H](O)COc2ccc(F)cc2)CC1 [Compound 411, (-)-(S)-4-[(2-benzothiazolyl)methylamino]-α-[(4-fluorophenoxy)methyl]-1-piperidineethanol dihydrochloride] | 5 mg/kg
CN(c1nc2ccccc2s1)C1CCN(CC(O)C2CCc3ccccc3O2)CC1 (stereo not drawn) [Compound 438, (A^-)-4-[(2-benzothiazolyl)methylamino]-α-(3,4-dihydro-2H-1-benzopyran-2-yl)-1-piperidineethanol] | 10 mg/kg
CN(c1nc2ccccc2s1)C1CCN(CC(O)CSc2ccccc2)CC1 (stereo not drawn) [Compound 440, 4-[(2-benzothiazolyl)methylamino]-α-[(phenylthio)methyl]-1-piperidineethanol (Z)-2-butenedioate(1:1)] | 10 mg/kg
CN(c1nc2ccccc2s1)C1CCN(CC(O)CSc2ccc(F)cc2)CC1 (stereo not drawn) [Compound 442, 4-[(2-benzothiazolyl)methylamino]-α-[[(4-fluorophenyl)thio]methyl]-1-piperdineethanol (Z)-2-butenedioate(1:1)] | 2.5 mg/kg
CN(c1nc2ccccc2s1)C1CCN(CC(O)CSc2ccc(Cl)cc2)CC1 (stereo not drawn) [Compound 443, 4-[(2-benzothiazolyl)methylamino]-α-[[(4-chlorophenyl)thio]methyl]-1-piperidineethanol (Z)-2-butenedioate(1:1)] | 10 mg/kg
CN(c1nc2ccccc2o1)C1CCN(CC(O)CSc2ccccc2)CC1 (stereo not drawn) [Compound 446, 4-[(2-benzoxazolyl)methylamino]-α-[(phenylthio)methyl]-1-piperidineethanol (E)-2-butenedioate(2:1)] | 10 mg/kg
CN(c1nc2ccccc2o1)C1CCN(CCc2ccccn2)CC1 [Compound 452, N-methyl-N-[1-[2-(2-pyridinyl)ethyl]-4-piperidinyl]-2-benzoxazolamine] | 5 mg/kg
